Reference: patent US5710150A, “Benzazepine derivative, pharmaceutical composition thereof, and intermediate thereof” (Yamanouchi Pharmaceutical Co., Ltd., priority 1993, dated 1998)
Where a name gives a salt, the structure may show the parent alone. Read-outs that look alike come from different tables or passages of the source.

Legend:
[1] = target: T1, arginine vasopressin V1 receptor (Rattus norvegicus, UniProt P30560); test: V1 receptor binding assay ([3H]-Arg-vasopressin, rat liver membrane); conditions: for antagonism on V1 receptor (in words): compared with OPC-31260 and OPC-21268
T1 construct: A rat liver membrane sample was prepared; from tissue; host or cells: rat liver membranes
T1 sequence (P30560 whole entry): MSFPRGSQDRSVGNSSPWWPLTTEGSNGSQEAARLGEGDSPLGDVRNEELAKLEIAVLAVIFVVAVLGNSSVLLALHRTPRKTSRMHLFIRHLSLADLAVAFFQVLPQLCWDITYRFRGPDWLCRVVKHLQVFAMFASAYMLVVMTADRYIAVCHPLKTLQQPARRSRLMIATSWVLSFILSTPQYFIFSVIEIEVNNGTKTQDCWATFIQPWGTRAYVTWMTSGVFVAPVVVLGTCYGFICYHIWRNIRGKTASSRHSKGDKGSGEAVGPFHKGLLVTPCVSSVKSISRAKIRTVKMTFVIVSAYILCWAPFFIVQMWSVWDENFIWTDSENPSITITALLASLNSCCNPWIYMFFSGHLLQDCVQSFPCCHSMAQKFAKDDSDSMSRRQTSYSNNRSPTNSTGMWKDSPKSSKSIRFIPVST
Experimental: (1) V1 receptor binding assay
A rat liver membrane sample was prepared in accordance with the method of Nakamura et al. (J. Biol. Chem., 258, 9283 (1983)), and [^3 H]-Arg-vasopressin (2 nM, specific activity=75.8 Ci/mmol), 70 μg of the membrane sample and each drug to be tested (10^-8 to 10^-4 M) were incubated at 30° C. for 30 minutes in 250 μl of 100 mM Tris-HCl buffer (pH=8.0) containing 5 mM of magnesium chloride, 1 mM of ethylenediaminetetraacetic acid (EDTA) and 0.1% of bovine serum albumin (BSA). Thereafter, the incubation solution was sucked off using a cell harvester and free ligand and excess buffer were removed by passing the reaction mixture through a glass filter (GF/B), thereby trapping receptor-bound labeled ligand on the glass filter. The glass filter was taken out, thoroughly dried and then mixed with a liquid scintillation cocktail, and the amount of the membrane-bound [^3 H]-vasopressin was measured using a liquid scintillation counter to calculate the inhibition ratio by the following formula. [formula] C1 : amount of [^3 H]-vasopressin bound to the membrane in the coexistence of known amount of each drug to be tested and [^3 H]-vasopressin
C0 : amount of [^3 H]-vasopressin bound to the membrane when the drug to be tested was not added
B1 : amount of [^3 H]-vasopressin bound to the membrane in the presence of excess vasopressin (10^-6 M)
[formula] [L]: concentration of radioactive ligand KD: dissociation constant calculated from Scatchard plot
Negative logarithm of the thus calculated Ki value was used as pKi value.

[2] = tested on: V1; test: V1 antagonism in conscious rats (oral administration), AVP-induced diastolic blood pressure increase; type: in vivo, male Wister rats; conditions: 1 mg/kg oral, 30 minutes to 6 hours after administration, AVP 30 mU/kg i.v.
[3] = target: arginine vasopressin V2 receptor (Oryctolagus cuniculus, UniProt G1TA00); test: V2 receptor binding assay ([3H]-Arg-vasopressin, rabbit renal medulla membrane); conditions: for antagonism on V2 receptor (in words): compared with OPC-31260 and OPC-21268; for Binding activity on arginine vasopressin V2 receptor (pKi): rabbit renal medulla membrane, [3H]-Arg-vasopressin 2 nM
Chain of arginine vasopressin V2 receptor (G1TA00 78-446): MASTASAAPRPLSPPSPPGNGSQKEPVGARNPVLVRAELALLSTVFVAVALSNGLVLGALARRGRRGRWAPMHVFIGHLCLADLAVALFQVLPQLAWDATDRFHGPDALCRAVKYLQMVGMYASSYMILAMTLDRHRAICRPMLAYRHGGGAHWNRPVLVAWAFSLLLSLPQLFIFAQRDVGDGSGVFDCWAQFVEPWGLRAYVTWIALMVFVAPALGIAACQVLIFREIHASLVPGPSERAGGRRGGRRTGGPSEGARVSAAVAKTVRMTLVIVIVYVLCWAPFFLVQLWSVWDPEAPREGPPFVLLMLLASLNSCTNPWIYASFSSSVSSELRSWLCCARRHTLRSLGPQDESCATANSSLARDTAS

[4] = rat liver membrane, [3H]-Arg-vasopressin 2 nM, 30° C., 30 minutes, pH 8.0, read-out: Binding activity on arginine vasopressin V1 receptor (pKi) (converted)

| SMILES | Ki [1, 4] [nM] | Binding activity on arginine vasopressin V2 receptor (pKi) [3] | further results |
| --- | --- | --- | --- |
| CN1CCN(C(=O)/C=C2/c3ccccc3N(C(=O)c3ccc(NC(=O)c4ccccc4-c4ccccc4)cc3)CCC2(F)F)CC1.Cl [Example 11, (Z)-4'-[[4,4-difluoro-5-(4-methyl-1-piperazinyl)carbonylmethylene-2,3,4,5-tetrahydro-1H-1-benzazepin-1-yl]carbonyl]-2-phenylbenzanilide hydrochloride] | 1.29 | 9.06 | antagonism on V1 receptor (in words) [1]: excellent antagonisms on both V1 and V2 receptors; Pressure increment by AVP (before compound = 100%) [2]: ≤ 50%; antagonism on V2 receptor (in words) [3]: excellent antagonisms on both V1 and V2 receptors |
| CN(C)C1CCN(C(=O)/C=C2/c3ccccc3N(C(=O)c3ccc(NC(=O)c4ccccc4-c4ccccc4)cc3)CCC2(F)F)CC1.Cl [Example 13, (Z)-4'-[[4,4-difluoro-5-[[(4-dimethylaminopiperidino)carbonyl]methylene]-2,3,4,5-tetrahydro-1H-1-benzazepin-1-yl]carbonyl]-2-phenylbenzanilide hydrochloride] | 0.0794 | 9.58 | antagonism on V1 receptor (in words) [1]: excellent antagonisms on both V1 and V2 receptors; Pressure increment by AVP (before compound = 100%) [2]: ≤ 50%; antagonism on V2 receptor (in words) [3]: excellent antagonisms on both V1 and V2 receptors |
| CN1CCCN(C(=O)/C=C2/c3ccccc3N(C(=O)c3ccc(NC(=O)c4ccccc4-c4ccccc4)cc3)CCC2(F)F)CC1.Cl [Example 24, (Z)-4'-[[4,4-difluoro-5-[[(4-methylhexahydro-1,4-diazepin-1-yl)carbonyl]methylene]-2,3,4,5-tetrahydro-1H-1-benzazepin-1-yl]carbonyl]-2-phenylbenzanilide hydrochloride] | 0.0316 | 9.26 | antagonism on V1 receptor (in words) [1]: excellent antagonisms on both V1 and V2 receptors; Pressure increment by AVP (before compound = 100%) [2]: ≤ 50%; antagonism on V2 receptor (in words) [3]: excellent antagonisms on both V1 and V2 receptors |
| CN(C)C1CCN(C(=O)/C=C2/c3ccccc3N(C(=O)c3ccc(NC(=O)c4cccc5ccccc45)cc3)CCC2(F)F)CC1 [Example 109, (Z)-N-[4'-[[4,4-difluoro-5-[[(4-dimethylaminopiperidino)carbonyl]methylene]-2,3,4,5-tetrahydro-1H-1-benzazepin-1-yl]carbonyl]phenylnaphthalene-1-carboxyamide hydrochloride] | 3.98 | 8.06 | – |
| CN(C)C1CCN(C(=O)/C=C2/c3ccccc3N(C(=O)c3ccc(NC(=O)c4cccn4C)cc3)CCC2(F)F)CC1 [Example 110, (Z)-N-[4-[[4,4-difluoro-5-[[(4-dimethylaminopiperidino)carbonyl]methylene]-2,3,4,5-tetrahydro-1H-1-benzazepin-1-yl]carbonyl]phenyl]-1-methylpyrrole-2-carboxyamide hydrochloride] | – | 7.75 | Ki [1]: 0.398 nM |
| Cc1ccsc1C(=O)Nc1ccc(C(=O)N2CCC(F)(F)/C(=C\C(=O)N3CCC(N(C)C)CC3)c3ccccc32)cc1 [Example 111, (Z)-N-[4-[[4,4-difluoro-5-[[(4-dimethylaminopiperidino)carbonyl]methylene]-2,3,4,5-tetrahydro-1H-1-benzazepin-1-yl]carbonyl]phenyl]-3-methylthiophene-2-carboxyamide hydrochloride] | – | 7.79 | Ki [1]: 0.562 nM |
| Cc1ccoc1C(=O)Nc1ccc(C(=O)N2CCC(F)(F)/C(=C\C(=O)N3CCC(N(C)C)CC3)c3ccccc32)cc1 [Example 113, (Z)-N-[4-[[4,4-difluoro-5-[[(4-dimethylaminopiperidino)carbonyl]methylene]-2,3,4,5-tetrahydro-1H-1-benzazepin-1-yl]carbonyl]phenyl]-3-methyl-2-furancarboxyamide hydrochloride] | – | 7.50 | Ki [1]: 0.263 nM; V1 selectivity (in words) ([1]; V1 versus V2 receptor binding): excellent in V1 selectivity; V1 receptor antagonism compared with OPC-21268 (in words) ([1]; versus OPC-21268): markedly stronger V1 receptor antagonism than that of OPC-21268 |
| NC(=O)/C=C1/c2ccccc2N(C(=O)c2ccc(NC(=O)c3ccccc3-c3ccccc3)cc2)CCC1(F)F [Example 121, (Z)-4'-[(5-carbamoylmethylene-4,4-difluoro-2,3,4,5-tetrahydro-1H-1-benzazepin-1-yl]carbonyl]-2-phenylbenzanilide] | 0.295 | 8.59 | – |
| CNC(=O)/C=C1/c2ccccc2N(C(=O)c2ccc(NC(=O)c3ccccc3-c3ccccc3)cc2)CCC1(F)F [Example 122, (Z)-4'-[[4,4-difluoro-5-(N-methylcarbamoylmethylene)-2,3,4,5-tetrahydro-1H-1-benzazepin-1-yl]carbonyl]-2-phenylbenzanilide] | 0.355 | 8.94 | – |
| CCNC(=O)/C=C1/c2ccccc2N(C(=O)c2ccc(NC(=O)c3ccccc3-c3ccccc3)cc2)CCC1(F)F [Example 123, (Z)-4'-[[5-(N-ethylcarbamoylmethylene)-4,4-difluoro-2,3,4,5-tetrahydro-1H-1-benzazepin-1-yl]carbonyl]-2-phenylbenzanilide] | 0.2 | 9.16 | – |
| CC(C)NC(=O)/C=C1/c2ccccc2N(C(=O)c2ccc(NC(=O)c3ccccc3-c3ccccc3)cc2)CCC1(F)F [Example 125, (Z)-4'-[[4,4-difluoro-5-(N-isopropylcarbamoylmethylene)-2,3,4,5-tetrahydro-1H-1-benzazepin-1-yl]carbonyl]-2-phenylbenzanilide] | 0.282 | 8.08 | – |
| O=C(/C=C1/c2ccccc2N(C(=O)c2ccc(NC(=O)c3ccccc3-c3ccccc3)cc2)CCC1(F)F)NC1CC1 [Example 126] | 0.288 | 8.22 | – |
| O=C(/C=C1/c2ccccc2N(C(=O)c2ccc(NC(=O)c3ccccc3-c3ccccc3)cc2)CCC1(F)F)NCc1ccccc1 [Example 127, (Z)-4'-[[4,4-difluoro-5-[(N-benzylcarbamoyl)methylene]-2,3,4,5-tetrahydro-1H-1-benzazepin-1-yl]carbonyl]-2-phenylbenzanilide] | 1.74 | 8.19 | – |
| CN(C)C(=O)/C=C1/c2ccccc2N(C(=O)c2ccc(NC(=O)c3ccccc3-c3ccccc3)cc2)CCC1(F)F [Example 129, (Z)-4'-[[5-(N,N-dimethylcarbamoylmethylene)-4,4-difluoro-2,3,4,5-tetrahydro1H-1-benzazepin-1-yl]carbonyl]-2-phenylbenzanilide] | 0.479 | 8.24 | – |
| O=C(Nc1ccc(C(=O)N2CCC(F)(F)/C(=C\C(=O)N3CCCC3)c3ccccc32)cc1)c1ccccc1-c1ccccc1 [Example 131] | 0.708 | 7.99 | – |
| O=C(Nc1ccc(C(=O)N2CCC(F)(F)/C(=C\C(=O)N3CCOCC3)c3ccccc32)cc1)c1ccccc1-c1ccccc1 [Example 133, (Z)-4'-[(4,4-difluoro-5-morpholinocarbonylmethylene-4,4-difluoro-2,3,4,5-tetrahydro-1H-1-benzazepin-1-yl)carbonyl]-2-phenylbenzanilide] | 0.363 | 8.28 | – |
| O=C(/C=C1/c2ccccc2N(C(=O)c2ccc(NC(=O)c3ccccc3-c3ccccc3)cc2)CCC1(F)F)NCCO [Example 134, (Z)-4'-[[4,4-difluoro-5-[N-(2-hydroxyethyl)carbamoylmethylene]-4,4-difluoro-2,3,4,5-tetrahydro-1H-1-benzazepin-1-yl]carbonyl]-2-phenylbenzanilide] | – | 8.94 | Binding activity on arginine vasopressin V1 receptor (pKi) ([1]; rat liver membrane, [3H]-Arg-vasopressin 2 nM, 30° C., 30 minutes, pH 8.0): 9.50 |
| COCCNC(=O)/C=C1/c2ccccc2N(C(=O)c2ccc(NC(=O)c3ccccc3-c3ccccc3)cc2)CCC1(F)F [Example 135, (Z)-4'-[[4,4-difluoro-5-[N-(2-methoxyethyl)carbamoylmethylene]-2,3,4,5-tetrahydro-1H-1-benzazepin-1-yl]carbonyl]-2-phenylbenzanilide] | 0.195 | 8.11 | – |
